{"source": "paper PMC5218480", "about": "(PLoS ONE, 2017)", "tested_on": "MV-4-11 cells", "assay": "Gene expression microarray analysis (Affymetrix PrimeView) and GSEA", "assay_type": "cell-based, human", "design": "RFU PODN (11730768_x_at) / Fold change /veh PODN (11730768_x_at) / RFU LINC00158 (11744669_a_at) / Fold change /veh LINC00158 (11744669_a_at) / RFU DUSP10 (11751237_a_at) / Fold change /veh DUSP10 (11751237_a_at) / RFU ID3 (11757404_x_at) / Fold change /veh ID3 (11757404_x_at) / RFU PLEKHG5 (11737974_s_at) / Fold change /veh PLEKHG5 (11737974_s_at) / RFU LRRC4B (11730491_at) / Fold change /veh LRRC4B (11730491_at) / RFU GIMAP4 (11747438_a_at) / Fold change /veh GIMAP4 (11747438_a_at) / RFU KRT8 (11758183_x_at) / Fold change /veh KRT8 (11758183_x_at) / RFU CNN1 (11734310_a_at) / Fold change /veh CNN1 (11734310_a_at) / RFU VPS37D (11726825_at) / Fold change /veh VPS37D (11726825_at) / RFU C10orf10 (11716522_x_at) / Fold change /veh C10orf10 (11716522_x_at) / RFU KIR2DL2 /// KIR2DL4 /// KIR2DL5A /// KIR2DL5B /// KIR2DS1 /// KIR2DS2 /// KIR2DS3 /// KIR2DS4 /// KIR3DL3 /// KIR3DL3 /// KIR3DS1 (11738374_at) / Fold change /veh KIR2DL2 /// KIR2DL4 /// KIR2DL5A /// KIR2DL5B /// KIR2DS1 /// KIR2DS2 /// KIR2DS3 /// KIR2DS4 /// KIR3DL3 /// KIR3DL3 /// KIR3DS1 (11738374_at) / RFU C1QL1 (11718748_at) / Fold change /veh C1QL1 (11718748_at) / RFU TMPRSS4 (11747572_a_at) / Fold change /veh TMPRSS4 (11747572_a_at) / RFU HAMP (11756126_x_at) / Fold change /veh HAMP (11756126_x_at) / RFU RNFT2 (11725882_a_at) / Fold change /veh RNFT2 (11725882_a_at) / RFU NR4A2 (11747474_a_at) / Fold change /veh NR4A2 (11747474_a_at) / RFU ABCC12 (11746883_a_at) / Fold change /veh ABCC12 (11746883_a_at) / RFU TMEM136 (11760407_x_at) / Fold change /veh TMEM136 (11760407_x_at) / RFU CLDN22 /// WWC2 (11732394_at) / Fold change /veh CLDN22 /// WWC2 (11732394_at) / RFU HLA-DPB1 (11760878_x_at) / Fold change /veh HLA-DPB1 (11760878_x_at) / RFU SPINT1 (11716480_a_at) / Fold change /veh SPINT1 (11716480_a_at) / RFU GAP43 (11754022_s_at) / Fold change /veh GAP43 (11754022_s_at) / RFU A4GNT (11735810_at) / Fold change /veh A4GNT (11735810_at) / RFU PRB3 (11715151_x_at) / Fold change /veh PRB3 (11715151_x_at) / RFU TUBB4B (11761932_at) / Fold change /veh TUBB4B (11761932_at) / RFU CAPN14 (11732068_a_at) / Fold change /veh CAPN14 (11732068_a_at) / RFU TMCC2 (11721928_a_at) / Fold change /veh TMCC2 (11721928_a_at) / RFU IRGQ (11745062_a_at) / Fold change /veh IRGQ (11745062_a_at) / RFU FAM174B (11720279_a_at) / Fold change /veh FAM174B (11720279_a_at) / RFU TMPRSS4 (11748680_a_at) / Fold change /veh TMPRSS4 (11748680_a_at) / RFU FAM212B (11763350_a_at) / Fold change /veh FAM212B (11763350_a_at) / RFU PLEKHG5 (11743358_a_at) / Fold change /veh PLEKHG5 (11743358_a_at) / RFU ZSCAN30 (11745921_a_at) / Fold change /veh ZSCAN30 (11745921_a_at) / RFU CMKLR1 (11741424_a_at) / Fold change /veh CMKLR1 (11741424_a_at) / RFU LOC101060620 /// MAPK8IP1 (11723275_at) / Fold change /veh LOC101060620 /// MAPK8IP1 (11723275_at) / RFU SPTSSB (11747773_x_at) / Fold change /veh SPTSSB (11747773_x_at) / RFU PRSS12 (11739890_at) / Fold change /veh PRSS12 (11739890_at) / RFU BIN1 (11741810_x_at) / Fold change /veh BIN1 (11741810_x_at) / RFU WNT11 (11732464_a_at) / Fold change /veh WNT11 (11732464_a_at) / RFU C10orf10 (11716521_a_at) / Fold change /veh C10orf10 (11716521_a_at) / RFU C5orf56 (11738089_at) / Fold change /veh C5orf56 (11738089_at) / RFU CYB561 (11721691_x_at) / Fold change /veh CYB561 (11721691_x_at) / RFU ANKRD19P (11752326_a_at) / Fold change /veh ANKRD19P (11752326_a_at) / RFU OR2T12 /// OR2T33 /// OR2T8 (11738714_s_at) / Fold change /veh OR2T12 /// OR2T33 /// OR2T8 (11738714_s_at) / RFU VCAN (11748164_a_at) / Fold change /veh VCAN (11748164_a_at) / RFU JSRP1 (11732532_at) / Fold change /veh JSRP1 (11732532_at) / RFU KRTAP10-11 (11738290_x_at) / Fold change /veh KRTAP10-11 (11738290_x_at) / RFU MYO3A (11730013_a_at) / Fold change /veh MYO3A (11730013_a_at) / RFU EBF3 (11725865_a_at) / Fold change /veh EBF3 (11725865_a_at) / RFU CAMK2N1 (11719241_x_at) / Fold change /veh CAMK2N1 (11719241_x_at) / RFU C5orf56 (11738088_a_at) / Fold change /veh C5orf56 (11738088_a_at) / RFU OLFML3 (11715873_a_at) / Fold change /veh OLFML3 (11715873_a_at) / RFU LOC100653217 /// NTM (11731650_a_at) / Fold change /veh LOC100653217 /// NTM (11731650_a_at) / RFU MAPK11 (11762145_a_at) / Fold change /veh MAPK11 (11762145_a_at) / RFU FIZ1 (11724087_x_at) / Fold change /veh FIZ1 (11724087_x_at) / RFU OASL (11726364_x_at) / Fold change /veh OASL (11726364_x_at) / RFU SOX15 (11748057_x_at) / Fold change /veh SOX15 (11748057_x_at) / RFU CD79A (11719716_a_at) / Fold change /veh CD79A (11719716_a_at) / RFU HIST1H1D (11736915_at) / Fold change /veh HIST1H1D (11736915_at) / RFU CASKIN2 (11723855_a_at) / Fold change /veh CASKIN2 (11723855_a_at) / RFU LOC730098 (11760151_x_at) / Fold change /veh LOC730098 (11760151_x_at) / RFU OR4N2 (11742367_at) / Fold change /veh OR4N2 (11742367_at) / RFU PRRT2 (11749266_a_at) / Fold change /veh PRRT2 (11749266_a_at) / RFU SNX32 (11753110_a_at) / Fold change /veh SNX32 (11753110_a_at) / RFU CDHR5 (11726645_a_at) / Fold change /veh CDHR5 (11726645_a_at) / RFU RCAN1 (11760418_a_at) / Fold change /veh RCAN1 (11760418_a_at) / RFU FAM167A (11723789_a_at) / Fold change /veh FAM167A (11723789_a_at) / RFU FAM26E (11764081_at) / Fold change /veh FAM26E (11764081_at) / RFU ISYNA1 (11749810_s_at) / Fold change /veh ISYNA1 (11749810_s_at) / RFU ACY1 (11761880_at) / Fold change /veh ACY1 (11761880_at) / RFU 11764098_at / Fold change /veh 11764098_at / RFU SAMD14 (11745864_x_at) / Fold change /veh SAMD14 (11745864_x_at) / RFU NPB (11741838_a_at) / Fold change /veh NPB (11741838_a_at) / RFU TMPRSS6 (11731388_a_at) / Fold change /veh TMPRSS6 (11731388_a_at) / RFU KRTAP10-2 (11738614_at) / Fold change /veh KRTAP10-2 (11738614_at) / RFU ARHGAP8 /// PRR5-ARHGAP8 (11727945_x_at) / Fold change /veh ARHGAP8 /// PRR5-ARHGAP8 (11727945_x_at) / RFU KRTAP5-7 /// NADSYN1 (11734609_at) / Fold change /veh KRTAP5-7 /// NADSYN1 (11734609_at) / RFU RASL12 (11751679_a_at) / Fold change /veh RASL12 (11751679_a_at) / RFU CDKN2B (11736163_a_at) / Fold change /veh CDKN2B (11736163_a_at) / RFU PRF1 (11729649_at) / Fold change /veh PRF1 (11729649_at) / RFU, ZNF638 /// ZNF638-IT1 / Fold change vs veh, ZNF638 /// ZNF638-IT1 / RFU, PANK3 / Fold change vs veh, PANK3 / RFU, SH3YL1 / Fold change vs veh, SH3YL1 / RFU, ZEB2 / Fold change vs veh, ZEB2 / RFU, NRIP1 / Fold change vs veh, NRIP1 / RFU, PTTG1IP / Fold change vs veh, PTTG1IP / RFU, CAPN2 / Fold change vs veh, CAPN2 / RFU, MED14 / Fold change vs veh, MED14 / RFU, SNORA58 / Fold change vs veh, SNORA58 / RFU, C1orf63 / Fold change vs veh, C1orf63 / RFU, LRRFIP1 / Fold change vs veh, LRRFIP1 / RFU, NDUFAF7 / Fold change vs veh, NDUFAF7 / RFU, SLC12A2 / Fold change vs veh, SLC12A2 / RFU, IBTK / Fold change vs veh, IBTK / RFU, ESF1 / Fold change vs veh, ESF1 / Fold change vs veh, TMEM50B / RFU, TAOK1 / Fold change vs veh, TAOK1 / RFU, ACBD3 / Fold change vs veh, ACBD3 / RFU, TMA16 / Fold change vs veh, TMA16 / RFU, RWDD3 / Fold change vs veh, RWDD3 / RFU, BCAT1 / Fold change vs veh, BCAT1 / RFU, EDEM3 / Fold change vs veh, EDEM3 / RFU, TMEM33 / Fold change vs veh, TMEM33 / RFU, WDR75 / Fold change vs veh, WDR75 / RFU, AHCTF1 / Fold change vs veh, AHCTF1 / RFU, TFRC / Fold change vs veh, TFRC / RFU, ZDHHC17 / Fold change vs veh, ZDHHC17 / RFU, NOM1 / Fold change vs veh, NOM1 / RFU, ARL8B / Fold change vs veh, ARL8B / RFU, ZBTB11 / Fold change vs veh, ZBTB11 / RFU, TAMM41 / Fold change vs veh, TAMM41 / RFU, KIAA1704 /// LOC100996395 / Fold change vs veh, KIAA1704 /// LOC100996395 / RFU, ING1 / Fold change vs veh, ING1 / RFU, TRMT61B / Fold change vs veh, TRMT61B / RFU, FUBP3 / Fold change vs veh, FUBP3 / RFU, TP53 / Fold change vs veh, TP53 / RFU, TNKS2 / Fold change vs veh, TNKS2 / RFU, ZFP14 / Fold change vs veh, ZFP14 / RFU, ACTR2 / Fold change vs veh, ACTR2 / RFU, PPP3R1 / Fold change vs veh, PPP3R1 / RFU, PIK3R1 / Fold change vs veh, PIK3R1 / RFU, HNRNPA1 / Fold change vs veh, HNRNPA1 / RFU, RNF170 / Fold change vs veh, RNF170 / RFU, ZNF28 / Fold change vs veh, ZNF28 / RFU, RNGTT / Fold change vs veh, RNGTT / RFU, OGT / Fold change vs veh, OGT / RFU, BRD1 / Fold change vs veh, BRD1 / RFU, MARS / Fold change vs veh, MARS / RFU, ZNF655 / Fold change vs veh, ZNF655 / RFU, FAHD1 / Fold change vs veh, FAHD1 / RFU, BDP1 / Fold change vs veh, BDP1 / RFU, LRRCC1 / Fold change vs veh, LRRCC1 / RFU, ARID1A / Fold change vs veh, ARID1A / RFU, ZNF146 / Fold change vs veh, ZNF146 / RFU, ZNF330 / Fold change vs veh, ZNF330 / RFU, GPN3 / Fold change vs veh, GPN3 / RFU, C9orf123 / Fold change vs veh, C9orf123 / RFU, N4BP2L2 / Fold change vs veh, N4BP2L2 / RFU, ARFIP1 / Fold change vs veh, ARFIP1 / RFU, FAM179B / Fold change vs veh, FAM179B / RFU, BCL10 / Fold change vs veh, BCL10 / RFU, UHRF1BP1L / Fold change vs veh, UHRF1BP1L / RFU, BET1 / Fold change vs veh, BET1 / RFU, CNOT2 / Fold change vs veh, CNOT2 / RFU, ZNF268 / Fold change vs veh, ZNF268 / Fold change vs veh, ZNF507 / RFU, DGCR2 / Fold change vs veh, DGCR2 / RFU, WDSUB1 / Fold change vs veh, WDSUB1 / Fold change vs veh, HSP90B1 /// MIR3652 / RFU, ADSS / Fold change vs veh, ADSS / RFU, GK / Fold change vs veh, GK / RFU, ZNF148 / Fold change vs veh, ZNF148 / RFU, TAF9 / Fold change vs veh, TAF9 / RFU, SLC1A5 / Fold change vs veh, SLC1A5 / RFU, SLMO2 / Fold change vs veh, SLMO2 / RFU, ABCC4 / Fold change vs veh, ABCC4 / RFU, LOC101060439 /// RAP1B / Fold change vs veh, LOC101060439 /// RAP1B / RFU, RFX7 / Fold change vs veh, RFX7 / RFU, GTPBP10 / Fold change vs veh, GTPBP10 / RFU, CNEP1R1 / Fold change vs veh, CNEP1R1 / RFU, BIVM-ERCC5 /// ERCC5 / Fold change vs veh, BIVM-ERCC5 /// ERCC5 / RFU, ILF3 / Fold change vs veh, ILF3 / RFU 11762660_at / Fold change /veh 11762660_at / RFU VCAN (11757783_s_at) / Fold change /veh VCAN (11757783_s_at) / RFU DDX43 (11728927_at) / Fold change /veh DDX43 (11728927_at) / RFU KRT8 (11758188_x_at) / Fold change /veh KRT8 (11758188_x_at) / RFU NKD1 (11759106_at) / Fold change /veh NKD1 (11759106_at) / RFU SRD5A1 (11742802_a_at) / Fold change /veh SRD5A1 (11742802_a_at) / RFU TPSAB1 /// TPSB2 (11721975_s_at) / Fold change /veh TPSAB1 /// TPSB2 (11721975_s_at) / RFU GSTM3 (11746129_a_at) / Fold change /veh GSTM3 (11746129_a_at) / RFU IL23R (11737362_x_at) / Fold change /veh IL23R (11737362_x_at) / RFU TMEM51 (11727254_a_at) / Fold change /veh TMEM51 (11727254_a_at) / RFU PIWIL2 (11732686_x_at) / Fold change /veh PIWIL2 (11732686_x_at) / RFU ORM1 (11744905_x_at) / Fold change /veh ORM1 (11744905_x_at) / RFU CCDC152 (11743942_at) / Fold change /veh CCDC152 (11743942_at) / RFU ECM1 (11717891_a_at) / Fold change /veh ECM1 (11717891_a_at) / RFU IL23R (11748794_a_at) / Fold change /veh IL23R (11748794_a_at) / RFU TNFAIP8L3 (11732012_x_at) / Fold change /veh TNFAIP8L3 (11732012_x_at) / RFU MBOAT4 (11741988_at) / Fold change /veh MBOAT4 (11741988_at) / RFU 11764193_at / Fold change /veh 11764193_at / RFU TMEM53 (11763286_at) / Fold change /veh TMEM53 (11763286_at) / RFU MAGEB2 (11727129_at) / Fold change /veh MAGEB2 (11727129_at) / RFU TMEM200A (11744735_a_at) / Fold change /veh TMEM200A (11744735_a_at) / RFU CCDC152 (11751479_a_at) / Fold change /veh CCDC152 (11751479_a_at) / RFU FAM211A (11726209_a_at) / Fold change /veh FAM211A (11726209_a_at) / RFU RGS16 (11746705_a_at) / Fold change /veh RGS16 (11746705_a_at) / RFU VCAN (11755009_s_at) / Fold change /veh VCAN (11755009_s_at) / RFU RHOB (11743442_s_at) / Fold change /veh RHOB (11743442_s_at) / RFU RGS16 (11720943_a_at) / Fold change /veh RGS16 (11720943_a_at) / RFU RGS16 (11720944_at) / Fold change /veh RGS16 (11720944_at) / RFU, VPS4B / Fold change vs veh, VPS4B / RFU, CREB1 / Fold change vs veh, CREB1 / RFU, DNAJC13 / Fold change vs veh, DNAJC13 / RFU, GNAQ / Fold change vs veh, GNAQ / RFU, CDK5R1 / Fold change vs veh, CDK5R1 / RFU, ZRANB3 / Fold change vs veh, ZRANB3 / RFU, CUL4A / Fold change vs veh, CUL4A / RFU, CCNY / Fold change vs veh, CCNY / RFU, UFL1 / Fold change vs veh, UFL1 / RFU, COG3 / Fold change vs veh, COG3 / RFU, DIAPH2 / Fold change vs veh, DIAPH2 / RFU, SKA2 / Fold change vs veh, SKA2 / RFU, AFF3 / Fold change vs veh, AFF3 / RFU, LMF1 / Fold change vs veh, LMF1 / RFU, IPO11 / Fold change vs veh, IPO11 / RFU, DFFB / Fold change vs veh, DFFB / RFU, FOXP1 / Fold change vs veh, FOXP1 / RFU, CARD8 / Fold change vs veh, CARD8 / RFU, STRN3 / Fold change vs veh, STRN3 / RFU, ADK / Fold change vs veh, ADK / RFU, RASSF2 / Fold change vs veh, RASSF2 / RFU, WIPF1 / Fold change vs veh, WIPF1 / RFU, LARP1B / Fold change vs veh, LARP1B / RFU, RASA1 / Fold change vs veh, RASA1 / RFU, RB1 / Fold change vs veh, RB1 / RFU, PPFIA1 / Fold change vs veh, PPFIA1 / RFU, MAT2A / Fold change vs veh, MAT2A / RFU, CCT5 / Fold change vs veh, CCT5 / RFU, WDR92 / Fold change vs veh, WDR92 / RFU, CUX1 / Fold change vs veh, CUX1 / RFU, TTC7A / Fold change vs veh, TTC7A / RFU, TMEM135 / Fold change vs veh, TMEM135 / RFU, DEPTOR / Fold change vs veh, DEPTOR / RFU, CPM / Fold change vs veh, CPM / RFU, DNAJB6 / Fold change vs veh, DNAJB6 / RFU, CACNA2D3 / Fold change vs veh, CACNA2D3 / RFU, DTX4 / Fold change vs veh, DTX4 / RFU, TFCP2 / Fold change vs veh, TFCP2 / RFU, GMCL1 /// GMCL1P1 / Fold change vs veh, GMCL1 /// GMCL1P1 / RFU, AEBP2 / Fold change vs veh, AEBP2 / RFU, SNHG1 /// SNORD22 /// SNORD25 /// SNORD26 /// SNORD27 /// SNORD28 /// SNORD29 /// SNORD31 / Fold change vs veh, SNHG1 /// SNORD22 /// SNORD25 /// SNORD26 /// SNORD27 /// SNORD28 /// SNORD29 /// SNORD31 / Fold change (Aza/veh), C12orf56 (ProbeSet 11735607_a_at) / Fold change (ACY-1035/veh), C12orf56 (ProbeSet 11735607_a_at) / Fold change (Aza/veh), FGFR1OP (ProbeSet 11751329_s_at) / Fold change (ACY-1035/veh), FGFR1OP (ProbeSet 11751329_s_at) / Fold change (Aza/veh), VPS36 (ProbeSet 11739960_a_at) / Fold change (ACY-1035/veh), VPS36 (ProbeSet 11739960_a_at) / RFU SYPL1 (11715823_x_at) / Fold change /veh SYPL1 (11715823_x_at) / RFU IGFBP7 (11715501_s_at) / Fold change /veh IGFBP7 (11715501_s_at) / RFU REEP3 (11722064_at) / Fold change /veh REEP3 (11722064_at) / RFU IGLL1 (11728026_x_at) / Fold change /veh IGLL1 (11728026_x_at): dose or concentration left out as unconfirmed", "conditions": "MV-4-11 cells, 48 hours", "data": [{"smiles": "Nc1ccc(-c2cccs2)cc1NC(=O)c1ccc2c(c1)cc(C1CC1)n2CCN1CCOCC1", "note": "[ACY-1035]", "values": [{"measurement": "RFU PLEKHG5 (11743358_a_at)", "result": 36.52, "unit": "RFU"}]}]}
